# Experiments:
# [1] = tested on: C. difficile; conditions: with drug use; cited from earlier work
# [2] = tested on: C. difficile VPI 10463; experiment: Murine model of C. difficile infection and treatment (clinical score, survival, relapse), Example 1; conditions: for deaths prevented during the acute infection period: untreated infected survival 38%
# [3] = tested on: C. difficile VPI 10463; experiment: Histopathology scoring of cecal and colonic tissues in the murine CDI model; assay type: in vivo, C57BL/6 mice
# [4] = tested on: IgG; design: species or system mice; conditions: mouse, in vivo
# [5] = tested on: C. difficile NAP1/BI/027; conditions: infections due to NAP1/BI/027, treated subjects; cited from earlier work
# [6] = uninfected mice, 5-day course of drug alone
# [7] = tested on: C. difficile VPI 10463; experiment: Cecal clostridial (tcdB qPCR) and toxin (TcdA/TcdB ELISA) burden in the murine CDI model; assay type: in vivo, C57BL/6 mice
# Experimental: Food and water were allowed ad libitum. […] Stool specimens were collected daily.
# Genomic DNA was extracted from the stool or cecal samples using a modified protocol for the QIAamp DNA stool minikits (Qiagen). Stool lysis buffer (400 μl) was added to a frozen stool sample-diluent (from enzyme-linked immunosorbent assay [ELISA]) mixture. Samples were then vortexed for 15 s and incubated at 82.5° C. for 5 min. The samples were vortexed for another 15 s and then centrifuged at 14,000 rpm for 2 min. The supernatant was added to a clean 1.5-ml microcentrifuge tube. Thirty microliters of proteinase K was added to the wall of each tube, followed by 400 μl of lysis buffer. Samples were vortexed for 15 s and then incubated at 70° C. for 10 min. After incubation, 400 μl of 100% ethanol was added to each sample and then mixed by vortexing. A total of 650 μl of the sample was then added to a spin column provided in the kit and centrifuged at 14,000 rpm for 1 min. The remaining volume of each sample was then added to the spin column and centrifuged under the same conditions. The samples were washed first with 500 μl of AW1 buffer and centrifuged at 14,000 rpm for 1 min and then with 500 μl of AW2 buffer and centrifuged at 14,000 rpm for 3 min. The DNA was eluted by adding 200 μl of elution buffer to the spin column and then centrifuging at 14,000 rpm for 1 min.
# [8] = second week postinoculation, infected control 2.7±0.9, uninfected 1.6±0.26
# [9] = 20 mg/kg oral gavage daily for 5 days
# [10] = first week after infection, 20 mg/kg oral gavage daily for 5 days, infected controls 5.7±0.9
compound,measurement,setting,value
Cc1ncc([N+](=O)[O-])n1CCO [metronidazole],recurrence rate,[1],≤ 50%
same,infected mice that relapsed,[2]; 20 mg/kg/day for 5 days,none
same,weight loss or diarrhea while on antibiotics,"[2]; 20 mg/kg/day for 5 days, infected mice",had diarrhea and weight loss during treatment
same,mice that died of infection during treatment,"[2]; 20 mg/kg/day for 5 days, 6 mice per group",one mouse
CC(=O)Oc1ccccc1C(=O)Nc1ncc([N+](=O)[O-])s1 [nitazoxanide],histopathology score,"[3]; first week postinoculation, 20 mg/kg daily, untreated infected 12.5±0.7, max score 15",11.53±0.9
same,histopathology score,[3]; [8],4.2±0.6
same,deaths prevented during the acute infection period,[2]; [9],60%
same,mean clinical score,[2]; [10],5±1
same,additional deaths in post-acute infection period,"[2]; second week postinfection, 20 mg/kg daily for 5 days",no additional deaths were noted
CNC(CC(C)C)C(=O)NC1C(=O)NC(CC(N)=O)C(=O)NC2C(=O)NC3C(=O)NC(C(=O)NC(C(=O)O)c4cc(O)cc(O)c4-c4cc3ccc4O)C(O)c3ccc(c(Cl)c3)Oc3cc2cc(c3OC2OC(CO)C(O)C(O)C2OC2CC(C)(N)C(O)C(C)O2)Oc2ccc(cc2Cl)C1O (stereo not drawn) [vancomycin],"IgG levels, low dose versus high dose",[4],higher IgG levels
same,rate of recurrence,[5],23.6%
same,weight loss or increase in disease score,[6],did not show weight loss or an increase in disease score
same,histopathology score,"[3]; at the peak of infection (day 3), uninfected control 2.2±1",4.5±1.6
same,histopathology score,[3]; [8],9.3±0.9
same,C. difficile DNA (tcdB) and toxin levels in cecal specimens,[7]; day 3 (peak of infection),low
same,clostridial burden in cecal specimens,"[7]; day 6 (1 day after antibiotic was discontinued), persisted on days 9 and 12",increased clostridial burden
same,deaths prevented during the acute infection period,[2]; [9],100%
same,clinical score until recurrence of disease,"[2]; 20 mg/kg/day for 5 or 10 days, both treatment groups",< 1
same,infected mice that relapsed,[2]; 20 mg/kg/day for 5 days,67%
same,"mortality rate, 10-day versus 5-day course",[2]; 20 mg/kg/day for 10 days,higher mortality rate
same,time from end of treatment to relapse,"[2]; 20 mg/kg/day, 5-day treatment course",4 days
same,time from discontinuation to relapse,"[2]; 20 mg/kg/day, 10-day treatment course",3 days
same,weight loss and clinical outcomes by duration of treatment,"[2]; 50 mg for 1 day only, versus 2, 3, 5 days",least weight loss and best clinical outcomes
same,overall mortality rate,"[2]; 50 mg given for 5 days, infected controls 75%",100%
same,deaths,"[2]; by day 9 and onwards, after 5-day treatment at 20 mg/kg",62%
same,mean clinical score,[2]; [10],1.7±0.3
same,mean clinical score,"[2]; second week postinfection, 20 mg/kg daily for 5 days, surviving untreated infected mice 2.6",6.2±0.2

# — patent US9387199B2, “Compositions and methods for treating clostridium infection and preventing recurrence of infection” (priority 2013, dated 2016)
